The target in this experiment is T1, Recombinant Mouse Matriptase (Mus musculus, UniProt P56677).
T1 sequence (P56677 615-855 limits assumed): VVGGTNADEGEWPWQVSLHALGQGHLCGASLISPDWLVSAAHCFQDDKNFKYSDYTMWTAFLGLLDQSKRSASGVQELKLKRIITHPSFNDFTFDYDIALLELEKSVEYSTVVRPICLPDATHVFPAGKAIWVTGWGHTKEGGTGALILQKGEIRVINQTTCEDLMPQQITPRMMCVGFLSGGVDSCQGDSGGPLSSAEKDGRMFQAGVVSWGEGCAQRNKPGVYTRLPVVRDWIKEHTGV
As to the kind of experiment: fluorogenic AMC release from Boc-QAC-AMC. It counts as biochemical.

The structures appear in SMILES notation.

As a reminder, the IC50 is the point on the concentration scale where inhibition reaches its midpoint. Regarding `N=C(N)c1ccc2cc(OC(=O)c3ccc(N=C(N)N)cc3)ccc2c1` [Nafamostat mesilate], the IC50 stood at 0.86 nM.

These data come from paper doi:10.1101/843607v1 (biorxiv, 2019).
